Measurements as given in patent US20090099231A1, “3-Sulfonylamino-Pyrrolidine-2-One Derivatives as Factor Xa Inhibitors” (priority 2005, published 2009).
Where a name gives a salt, the structure may show the parent alone.

Experiments:
[1] = test system: human plasma; test: Measurement of Prothrombin Time (PT), time to clot formation in plasma; settings: pooled plasma from 4 donors, test compound 0.03 to 100 uM, Thromboplastin C Plus
Method: Blood was collected into a sodium citrate solution (ratio 9:1) to give a final concentration of 0.38% citrate. Plasma was generated by centrifugation of citrated blood samples at 1200×g for 20 min at 4° C. and stored at −20° C. until use.
The PT test was performed using the BCS Coagulation Analyzer (Dade Behring). For assay, 50 ul of plasma containing test compound at concentrations ranging from 0.03 to 100 uM (made from a 100 uM stock containing 1% DMSO in plasma) was combined with 100 ul of Thromboplastin C Plus (Dade Behring). Upon addition of the reagents, absorbance at 405 nm was monitored and time to clot formation is determined (normal range for human plasma is 10.6-12.4 seconds).

[2] = target: human Factor Xa (Homo sapiens, UniProt P00742); test: In vitro assay for inhibition of Factor Xa (fluorogenic assay, Rhodamine 110 bis-Cbz-glycylglycyl-L-arginine amide substrate); assay type: biochemical; settings: for Ki: Ki=IC50/(1+[Substrate]/Km), i.e. IC50 divided by 1.6, human Factor Xa fluorogenic assay; for Factor Xa inhibitory activity: human Factor Xa 0.0003 U.ml-1, substrate 10 μM, 15 min preincubation, room temperature, pH 7.4
Chain of human Factor Xa (P00742 235-488 limits assumed): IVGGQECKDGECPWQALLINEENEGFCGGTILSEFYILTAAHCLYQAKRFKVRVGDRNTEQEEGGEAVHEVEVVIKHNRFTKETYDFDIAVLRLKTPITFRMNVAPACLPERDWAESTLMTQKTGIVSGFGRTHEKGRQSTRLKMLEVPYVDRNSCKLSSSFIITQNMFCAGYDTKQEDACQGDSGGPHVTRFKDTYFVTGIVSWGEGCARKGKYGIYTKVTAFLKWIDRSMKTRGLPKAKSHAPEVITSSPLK
Chain of human Factor Xa (P00742 41-179 partner limits assumed): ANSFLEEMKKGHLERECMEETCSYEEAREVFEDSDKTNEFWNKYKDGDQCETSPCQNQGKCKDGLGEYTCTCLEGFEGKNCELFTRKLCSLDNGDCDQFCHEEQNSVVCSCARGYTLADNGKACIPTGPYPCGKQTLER
Method: Compounds of the present invention were tested for their Factor Xa inhibitory activity as determined in vitro by their ability to inhibit human Factor Xa in a fluorogenic assay, using Rhodamine 110, bis-Cbz-glycylglycyl-L-arginine amide as the fluorogenic substrate. Compounds were diluted from a 10 mM stock solution in dimethylsulfoxide at appropriate concentrations. Assay was performed at room temperature using buffer consisting of: 50 mM Tris-HCl, 150 mM NaCl, 5 mM CaCl2, pH 7.4 containing human Factor Xa (final concentration of 0.0003 U.ml-1). Compound and enzyme were preincubated for 15 min prior to addition of the substrate (final concentration of 10 μM). The reaction was stopped after 3 hrs with the addition of H-D-Phe-Pro-Arg-Chloromethylketone. An LJL-Analyst fluorimeter was used to monitor fluorescence with 485 nm excitation/535 nm emission. To obtain IC50 values the data were analysed using ActivityBase® and XLfit®.
Ki=IC50/(1+[Substrate]/Km)
The Ki value for the above assay can be obtained by dividing the IC50 value by 1.6.

Ki [2]	Factor Xa inhibitory activity [2]	SMILES	activity in prothrombin time (PT) test [1]
< 0.01 µM	exhibit Factor Xa inhibitory activity	CC1NCCc2cc(N3CC[C@H](NS(=O)(=O)c4ccc5cc(Cl)ccc5c4)C3=O)ccc21 (stereo partly drawn) [Example 31, 6-Chloro-N-[(3S)-1-(1-methyl-1,2,3,4-tetrahydro-6-isoquinolinyl)-2-oxo-3-pyrrolidinyl]-2-naphthalenesulfonamide hydrochloride]	exhibit activity
< 0.01 µM	exhibit Factor Xa inhibitory activity	CC1NCCc2cc(N3CC[C@H](NS(=O)(=O)/C=C/c4ccc(Cl)s4)C3=O)ccc21 (stereo partly drawn) [Example 32, (E)-2-(5-Chloro-2-thienyl)-N-[(3S)-1-(1-methyl-1,2,3,4-tetrahydro-6-isoquinolinyl)-2-oxo-3-pyrrolidinyl]ethenesulfonamide hydrochloride]	exhibit activity
< 0.01 µM	exhibit Factor Xa inhibitory activity	CC1Cc2cc(N3CC[C@H](NS(=O)(=O)/C=C/c4ccc(Cl)s4)C3=O)ccc2CN1 (stereo partly drawn) [Example 33, (E)-2-(5-Chloro-2-thienyl)-N-[(3S)-1-(3-methyl-1,2,3,4-tetrahydro-6-isoquinolinyl)-2-oxo-3-pyrrolidinyl]ethenesulfonamide hydrochloride]	exhibit activity
< 0.01 µM	exhibit Factor Xa inhibitory activity	O=C1[C@@H](NS(=O)(=O)c2cc3cc(Cl)ccc3[nH]2)CCN1c1ccc2c(c1)CCNC2.O=CO [Example 36, 5-Chloro-N-[(3S)-2-oxo-1-(1,2,3,4-tetrahydro-6-isoquinolinyl)-3-pyrrolidinyl]-1H-indole-2-sulfonamide]	exhibit activity
–	exhibit Factor Xa inhibitory activity	CN1CCc2cc(N3CC[C@H](NS(=O)(=O)/C=C/c4ccc(Cl)cc4)C3=O)ccc2C1.O=CO [Example 37, (E)-2-(4-Chlorophenyl)-N-[(3S)-1-(2-methyl-1,2,3,4-tetrahydro-6-isoquinolinyl)-2-oxo-3-pyrrolidinyl]ethenesulfonamide formate]	exhibit activity
–	exhibit Factor Xa inhibitory activity	CC1Cc2cc(N3CC[C@H](NS(=O)(=O)c4ccc5cc(Cl)ccc5c4)C3=O)ccc2CN1.O=CO (stereo partly drawn) [Example 38, 6-Chloro-N-[(3S)-1-(3-methyl-1,2,3,4-tetrahydro-6-isoquinolinyl)-2-oxo-3-pyrrolidinyl]-2-naphthalenesulfonamide formate]	exhibit activity
